Consider two molecules from US20220112237A1, “AMINO ACID COMPOSITION HAVING CO-AMORPHOUS STRUCTURE” (AJINOMOTO CO., INC., priority 2019, published 2022).

Molecules are shown by their SMILES.

The nature of series [1]: Test to confirm the dissolved amount (Tyr concentration of supernatant by HPLC). The series is classed as physicochemical. The following applies: 130 mg in 100 mL water, pH 6.5-7.5, 25° C., stirred, after 24 hours. The protocol:
[…] After the powder was dissolved completely, the pH was adjusted using 5 mol/L hydrochloric acid to be within the range of 6.5-7.5. Bottles A-D were immersed in a water bath (“NCG-3300”, manufactured by Tokyo Rikakikai Co., Ltd.) at 25° C., and bottles A and C were stirred by the magnetic stirrer, and bottles B and D were allowed to stand without stirring. After 2 hours, 2 mL was sampled from each bottle, and filtered using a 0.45 μm filter (“Millex”, Merck). The filtered sample was diluted 50 times, and the Tyr concentration of the supernatant was determined using high-performance liquid chromatography (HPLC) (“1100 Series”, manufactured by Agilent).
The above process was conducted again after 24 hours, 48 hours, and 333 hours. In the drawing, ◯, Δ, ● and ▴ represent A (stirred, 138 mg), B (allowed to stand, 138 mg), C (stirred, 220 mg) and D (allowed to stand, 220 mg), respectively. […]
After 5 minutes, 10 minutes, 30 minutes, 1 hour, 2 hours, 24 hours, and 168 hours from the start of stirring, 2 mL was sampled from each sample bottle, and filtered using the 0.45 […] filter (“Millex”, Merck). The filtered sample was diluted 50 times, and the Tyr concentration of the supernatant was determined using the high-performance liquid chromatography (HPLC) (“1100 Series”, manufactured by Agilent).

Series [2] is described as follows: Confirmation of formation of amorphous product by powder X-ray diffraction. It is filed as physicochemical. The following applies: Cys2 with Arg or Cys2 alone, ball mill as Example 1, 30° C., FIG. 6. The protocol:
The solid powder obtained in (1) was measured by the powder X-ray diffraction apparatus (“Empyrean”, manufactured by Malvern Panalytical), and the powder X-ray diffraction patterns of the solid were obtained. In the drawing, line a represents the pattern of the mixture at time zero, line b represents time zero plus 4 hours, and line c represents time zero plus 12 hours. As a result, a well-defined peak characteristic of crystal structure was not found. From this, it was confirmed that the solid obtained in (1) was amorphous.
The solid obtained in (1) was measured by the same powder X-ray diffraction apparatus as Example 1, and the powder X-ray diffraction patterns of the solid are shown in FIG. 4.
The solid obtained in (1) was measured by the same powder X-ray diffraction apparatus as Example 1, and the powder X-ray diffraction patterns were obtained. […]
The solid obtained in (1) was measured by the same powder X-ray diffraction apparatus as Example 1, and the powder X-ray diffraction patterns of the solid are shown in FIG. 7.
The solid obtained in (1) was measured by the same powder X-ray diffraction apparatus as Example 1, and the powder X-ray diffraction patterns of the solid are shown in FIG. 8.
The solid obtained in (1) was measured by the same powder X-ray diffraction apparatus as Example 1, and the powder X-ray diffraction patterns of the solid are shown in FIG. 9. […]

As to `N[C@@H](Cc1ccc(O)cc1)C(=O)O` [Tyr crystal, tyrosine], the “Tyr concentration of the supernatant” value in series [1] is recorded as 430 mg/L.
In the case of `N[C@@H](CSSC[C@H](N)C(=O)O)C(=O)O` [compound 7, Cystine], in series [2], the “Formation of amorphous product after pulverization” value was “the crystal property remained”.
